Columns and labels:
[1] = biological target: T1, Retinoic acid receptor alpha (Homo sapiens, UniProt P10276); assay: Transcriptional activation in CV-1 cells expressing Retinoic acid receptor alpha; format: cell-based, Cercopithecidae
T1 sequence (P10276 whole entry): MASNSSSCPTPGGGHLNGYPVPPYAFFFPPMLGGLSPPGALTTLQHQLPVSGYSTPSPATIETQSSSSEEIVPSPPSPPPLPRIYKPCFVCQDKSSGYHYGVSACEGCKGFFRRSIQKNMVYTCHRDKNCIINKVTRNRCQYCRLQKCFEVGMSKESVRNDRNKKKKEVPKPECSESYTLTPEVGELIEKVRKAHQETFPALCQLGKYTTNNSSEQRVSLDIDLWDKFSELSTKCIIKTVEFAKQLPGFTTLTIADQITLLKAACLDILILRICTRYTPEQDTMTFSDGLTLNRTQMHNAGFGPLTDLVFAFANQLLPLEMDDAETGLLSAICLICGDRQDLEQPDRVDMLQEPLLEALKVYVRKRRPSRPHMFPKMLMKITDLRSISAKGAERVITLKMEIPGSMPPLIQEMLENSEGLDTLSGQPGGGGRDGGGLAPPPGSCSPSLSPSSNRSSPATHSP

[2] = biological target: T2, Retinoic acid receptor RXR-alpha (Homo sapiens) (UniProt P19793); assay: Percent activation of Retinoic acid receptor RXR-alpha at 1 uM relative to 1 uM 9-cis-retinoic acid
T2 sequence (whole entry): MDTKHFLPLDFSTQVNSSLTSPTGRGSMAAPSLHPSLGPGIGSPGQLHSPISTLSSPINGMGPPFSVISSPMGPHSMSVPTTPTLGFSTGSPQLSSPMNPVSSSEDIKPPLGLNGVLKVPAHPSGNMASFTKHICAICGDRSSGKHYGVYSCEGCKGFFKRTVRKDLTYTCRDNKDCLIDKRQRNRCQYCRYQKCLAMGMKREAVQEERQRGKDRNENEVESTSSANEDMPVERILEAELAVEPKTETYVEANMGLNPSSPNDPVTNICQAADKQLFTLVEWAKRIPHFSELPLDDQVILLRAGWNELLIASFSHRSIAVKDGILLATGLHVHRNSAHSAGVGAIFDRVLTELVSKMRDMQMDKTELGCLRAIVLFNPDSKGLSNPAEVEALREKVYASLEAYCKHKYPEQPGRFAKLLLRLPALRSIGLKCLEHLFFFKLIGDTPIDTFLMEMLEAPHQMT

[3] = biological target: T3, Retinoic acid receptor gamma (Homo sapiens, UniProt P13631); assay: Transcriptional activation in CV-1 cells expressing retinoic acid gamma receptor; format: cell-based, Cercopithecidae
T3 sequence (P13631 whole entry): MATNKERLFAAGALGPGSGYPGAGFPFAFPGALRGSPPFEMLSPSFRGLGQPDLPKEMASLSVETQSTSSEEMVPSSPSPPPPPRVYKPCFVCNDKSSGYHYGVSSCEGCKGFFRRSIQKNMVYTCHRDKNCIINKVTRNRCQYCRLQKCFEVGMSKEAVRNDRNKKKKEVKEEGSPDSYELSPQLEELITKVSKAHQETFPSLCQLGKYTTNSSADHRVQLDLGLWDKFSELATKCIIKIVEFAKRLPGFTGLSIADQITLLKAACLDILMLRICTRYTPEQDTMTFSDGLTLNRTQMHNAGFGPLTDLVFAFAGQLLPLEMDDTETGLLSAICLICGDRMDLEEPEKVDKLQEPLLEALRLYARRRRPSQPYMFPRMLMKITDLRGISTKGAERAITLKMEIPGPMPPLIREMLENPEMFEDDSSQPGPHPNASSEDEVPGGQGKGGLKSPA

[4] = biological target: T4, Retinoic acid receptor RXR-alpha (Homo sapiens, UniProt P19793); assay: Transcriptional activation in CV-1 cells expressing Retinoic acid receptor RXR-alpha; format: cell-based, Cercopithecidae
T4 sequence (P19793 whole entry): T2 sequence (whole entry)

[5] = biological target: T5, Retinoic acid receptor beta (Homo sapiens, UniProt P10826); assay: Transcriptional activation in CV-1 cells expressing Retinoic acid receptor beta; format: cell-based, Cercopithecidae
T5 sequence (P10826 whole entry): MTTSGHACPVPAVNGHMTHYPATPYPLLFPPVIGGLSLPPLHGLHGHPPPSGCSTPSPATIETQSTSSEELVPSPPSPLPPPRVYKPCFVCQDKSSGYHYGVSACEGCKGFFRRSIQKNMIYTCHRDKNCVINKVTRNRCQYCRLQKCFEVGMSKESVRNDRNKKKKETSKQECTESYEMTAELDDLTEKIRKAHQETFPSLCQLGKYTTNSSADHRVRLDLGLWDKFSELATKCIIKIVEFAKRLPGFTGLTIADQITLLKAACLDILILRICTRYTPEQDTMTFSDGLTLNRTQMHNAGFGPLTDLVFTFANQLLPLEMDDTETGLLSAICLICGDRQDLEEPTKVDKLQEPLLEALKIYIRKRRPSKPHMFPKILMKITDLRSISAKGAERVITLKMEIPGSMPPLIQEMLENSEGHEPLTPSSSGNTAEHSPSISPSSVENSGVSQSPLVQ

ZR-75-1 = assay: Inhibition of ZR-75-1 retinoid sensitive breast carcinoma cell proliferation at 1 uM; format: functional; conditions: Homo sapiens
T47D = assay: Inhibition of T47D retinoid sensitive breast carcinoma cell proliferation at 1 uM; format: functional; conditions: Homo sapiens
MDA-MB-231 = assay: Growth of MDA-MB-231 retinoid resistant breast carcinoma cells at 1 uM; conditions: Homo sapiens

| Structure (SMILES) | AC50 [1] [nM] | Activation [2] [%] | AC50 [3] [nM] | AC50 [4] [nM] | AC50 [5] [nM] | inhibition at 1 µM (ZR-75-1) [%] | inhibition at 1 µM (T47D) [%] | growth relative to control at 1 µM (MDA-MB-231) [%] |
| --- | --- | --- | --- | --- | --- | --- | --- | --- |
| CC1(C)CCC(C)(C)c2cc(-c3ccc4cc(C(=O)O)ccc4c3)ccc21 | > 1000 | 0 | 68 | > 1000 | 52 |  |  |  |
| CC1=C(/C=C/C(C)=C\C=C\C(C)=C\C(=O)O)C(C)(C)CCC1 [ALITRETINOIN] |  |  |  |  |  | 59 | 35 | 69 |
| Cc1cc2c(cc1-c1ncc(-c3ccc(C(=O)O)cc3)s1)C(C)(C)CCC2(C)C | > 1000 | 8 | 220 | > 1000 | 740 |  |  |  |
| CC1=C(/C=C/C(C)=C/C=C/C(C)=C/C(=O)O)C(C)(C)CCC1 [TRETINOIN] |  |  |  |  |  | 70 | 39 | 94 |
| Cc1cc2c(cc1-c1cccc(-c3ccc(C(=O)O)cc3)n1)C(C)(C)CCC2(C)C | > 1000 | 0 | 1000 | > 1000 | > 1000 |  |  |  |
| CC1(C)CCC(C)(C)c2cc(-c3cccc(-c4ccc(C(=O)O)cc4)n3)ccc21 | 370 | 17 | > 1000 | > 1000 | 140 |  |  |  |
| Cc1ccc(-c2ccc(C(=O)O)cc2)cc1-c1cc2c(cc1C)C(C)(C)CCC2(C)C | > 1000 | 70 | 1 | 430 | 10 |  |  |  |
| CC1(C)CCC(C)(C)c2cc(-c3cccc(-c4ccc(C(=O)O)cc4)c3)ccc21 | 1 | 27 | 2.3 | > 1000 | 4.3 | 47 | 32 | 80 |
| Cc1ccc(-c2ccc(C(=O)O)cc2)cc1-c1ccc2c(c1)C(C)(C)CCC2(C)C | 79 | 85 | < 1 | 135 | < 1 | 49 | 35 | 75 |
| C/C(=C\c1ccc(C(=O)O)cc1)c1ccc2c(c1)C(C)(C)CCC2(C)C |  | 0 |  | > 1000 |  |  |  |  |
